Data on two compounds can be found in paper PMC9278983, “Biochemical and Structural Characterization of Thermostable GH159 Glycoside Hydrolases Exhibiting α-L-Arabinofuranosidase Activity” (Frontiers in Molecular Biosciences, 2022).

Type in all cases: biochemical
Experiment [1] addresses T1, Cs_Gaf159A (Caldicellulosiruptor saccharolyticus, UniProt A4XGP0).
T1 construct: gene Csac_0437; full-length (no signal peptide), C-terminal His6 tag, pET24c(+), E. coli BL21 Star, IMAC
The experiment is described as follows: product inhibition, pNPA hydrolysis. The conditions noted are these: read-out: % inhibition at 500 mM.

For experiment [2], the target named is T2, Ch_Gaf159A (Caldicellulosiruptor hydrothermalis, UniProt E4QB49).
T2 construct: gene Calhy_0274; full-length (no signal peptide), C-terminal His6 tag, pET24c(+), E. coli BL21 Star, IMAC; monomer
The experiment can be described thus: product inhibition, pNPA hydrolysis. The settings on record: read-out: % inhibition at 500 mM.

A further experiment addresses T3, Ck_Gaf159A (Caldicellulosiruptor kronotskyensis, UniProt E4SDK8).
T3 construct: gene Calkro_0290; full-length (no signal peptide), C-terminal His6 tag, pET24c(+), E. coli BL21 Star, IMAC
The experiment can be described thus: product inhibition, pNPA hydrolysis. The conditions noted are these: read-out: % inhibition at 500 mM.

Experiment [3] has as its target T1, Cs_Gaf159A. The experiment can be described thus: pNP release, […] nm, Michaelis-Menten. The settings on record: 90 °C, pH 6.5 MOPS, 10 mM CaCl2, 10 min; saturation not reached.
Experiment [4] deals with T2, Ch_Gaf159A. The experiment is described as follows: pNP release, […] nm, Michaelis-Menten. The conditions noted are these: 82 °C, pH 6.5 MOPS, 10 mM CaCl2, 10 min; saturation not reached.

The term inhibition denotes the percentage by which the read-out fell short of the control. Broadly, the Km is the concentration of substrate that gives half-maximal velocity.

T1 sequence (A4XGP0 entry or part of it): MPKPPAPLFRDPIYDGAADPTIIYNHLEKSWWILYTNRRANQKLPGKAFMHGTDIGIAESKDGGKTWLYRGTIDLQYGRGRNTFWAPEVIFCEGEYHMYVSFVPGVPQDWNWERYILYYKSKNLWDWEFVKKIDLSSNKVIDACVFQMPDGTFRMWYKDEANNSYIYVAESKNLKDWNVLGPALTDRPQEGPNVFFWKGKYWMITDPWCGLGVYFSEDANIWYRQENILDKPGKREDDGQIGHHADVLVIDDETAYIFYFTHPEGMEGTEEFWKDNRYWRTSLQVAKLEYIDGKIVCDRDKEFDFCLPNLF
T2 sequence (E4QB49 entry or part of it): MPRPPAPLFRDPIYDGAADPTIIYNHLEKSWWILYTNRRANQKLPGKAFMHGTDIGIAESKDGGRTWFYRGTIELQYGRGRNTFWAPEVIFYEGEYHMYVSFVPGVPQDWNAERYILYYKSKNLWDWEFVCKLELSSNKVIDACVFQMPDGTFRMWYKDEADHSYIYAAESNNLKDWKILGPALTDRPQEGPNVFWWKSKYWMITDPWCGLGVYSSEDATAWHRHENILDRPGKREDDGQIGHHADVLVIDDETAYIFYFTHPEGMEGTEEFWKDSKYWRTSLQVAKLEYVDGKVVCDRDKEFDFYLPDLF
T3 sequence (E4SDK8 entry or part of it): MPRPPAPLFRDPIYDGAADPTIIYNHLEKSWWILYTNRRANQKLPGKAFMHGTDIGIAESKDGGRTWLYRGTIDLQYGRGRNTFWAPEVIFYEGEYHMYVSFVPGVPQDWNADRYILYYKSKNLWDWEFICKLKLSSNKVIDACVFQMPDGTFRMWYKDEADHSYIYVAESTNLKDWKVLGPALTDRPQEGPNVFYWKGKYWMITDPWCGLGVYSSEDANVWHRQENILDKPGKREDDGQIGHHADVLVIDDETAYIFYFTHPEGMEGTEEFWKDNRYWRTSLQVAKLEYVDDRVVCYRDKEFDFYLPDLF

In the case of `OC1OC[C@H](O)[C@H](O)[C@H]1O` (some centres unmarked) [arabinose], the inhibition at 500000 µM on Cs_Gaf159A [1], at Ch_Gaf159A [2] and on Ck_Gaf159A was < 50% throughout.

In the case of `O=[N+]([O-])c1ccc(O[C@@H]2O[C@@H](CO)[C@H](O)[C@H]2O)cc1` [pNPA, pNP-α-L-arabinofuranoside], the Km on Cs_Gaf159A [3] and at Ch_Gaf159A [4] was > 10 mM throughout.
